pKi: −log10 of the molar value.
Assays:
Rattus norvegicus = organism: Rattus norvegicus; experiment: Selectivity ratio of Ki for rat alpha3beta4 nicotinic receptor to Ki for rat alpha4beta2 nicotinic receptor
[1] = molecular target: Neuronal acetylcholine receptor; alpha2/beta4 (Rattus norvegicus, UniProt P12389+P12392); experiment: Displacement of [3H]epibatidine from rat alpha2beta4 nicotinic receptor expressed in human HEK293 cells by liquid scintillation counting; format: cell-based
[2] = molecular target: Neuronal acetylcholine receptor; alpha3/beta2 (Rattus norvegicus, UniProt P04757+P12390); experiment: Displacement of [3H]epibatidine from rat alpha3beta2 nicotinic receptor expressed in human HEK293 cells by liquid scintillation counting; format: cell-based
[3] = molecular target: Neuronal acetylcholine receptor; alpha3/beta4 (Rattus norvegicus, UniProt P04757+P12392); experiment: Displacement of [3H]epibatidine from rat alpha3beta4 nicotinic receptor expressed in human HEK293 cells by liquid scintillation counting; format: cell-based
[4] = molecular target: Neuronal acetylcholine receptor; alpha4/beta4 (Rattus norvegicus, UniProt P09483+P12392); experiment: Displacement of [3H]epibatidine from rat alpha4beta4 nicotinic receptor expressed in human HEK293 cells by liquid scintillation counting; format: cell-based
[5] = molecular target: Neuronal acetylcholine receptor; alpha4/beta2 (Rattus norvegicus) (UniProt P09483+P12390); experiment: Ratio of compound Ki to epibatidine Ki for rat alpha4beta2 nicotinic receptor expressed in human HEK293 cells; format: cell-based
[6] = Octanol-water partition coefficient, log D at pH 7.4 by shake flask method; format: physicochemical
[7] = molecular target: Neuronal acetylcholine receptor subunit alpha-2 (Rattus norvegicus, UniProt P12389+P12390); experiment: Displacement of [3H]epibatidine from rat alpha2beta2 nicotinic receptor expressed in human HEK293 cells by liquid scintillation counting; format: cell-based
[8] = molecular target: T1, Neuronal acetylcholine receptor; alpha4/beta2 (Rattus norvegicus, UniProt P09483+P12390); experiment: Displacement of [3H]epibatidine from rat alpha4beta2 nicotinic receptor expressed in human HEK293 cells by liquid scintillation counting; format: cell-based
[9] = Drug uptake in baboon brain thalamus assessed as binding potential at 31 mCi by bolus injection; format: ADME, organism-based; conditions: papio anubis, in vivo, iv
[10] = Drug uptake in baboon brain thalamus assessed as binding potential at 21 mCi by bolus injection; format: ADME, organism-based; conditions: papio anubis, in vivo, iv
[11] = Ratio of drug uptake in thalamus to cerebellum of CD1 mouse at 0.07 mCi, iv after 45 mins; format: ADME, organism-based; conditions: in vivo, 0.75 h
[12] = Drug uptake in baboon brain thalamus assessed as binding potential at 17.5 mCi by bolus injection; format: ADME, organism-based; conditions: papio anubis, in vivo, iv
[13] = molecular target: T1, Neuronal acetylcholine receptor; alpha4/beta2; experiment: Displacement of [125I]5-A-85380 from alpha4beta2 nicotinic receptor in rat brain; format: tissue-based

Chain of Neuronal acetylcholine receptor; alpha2/beta4 (P12389 whole entry): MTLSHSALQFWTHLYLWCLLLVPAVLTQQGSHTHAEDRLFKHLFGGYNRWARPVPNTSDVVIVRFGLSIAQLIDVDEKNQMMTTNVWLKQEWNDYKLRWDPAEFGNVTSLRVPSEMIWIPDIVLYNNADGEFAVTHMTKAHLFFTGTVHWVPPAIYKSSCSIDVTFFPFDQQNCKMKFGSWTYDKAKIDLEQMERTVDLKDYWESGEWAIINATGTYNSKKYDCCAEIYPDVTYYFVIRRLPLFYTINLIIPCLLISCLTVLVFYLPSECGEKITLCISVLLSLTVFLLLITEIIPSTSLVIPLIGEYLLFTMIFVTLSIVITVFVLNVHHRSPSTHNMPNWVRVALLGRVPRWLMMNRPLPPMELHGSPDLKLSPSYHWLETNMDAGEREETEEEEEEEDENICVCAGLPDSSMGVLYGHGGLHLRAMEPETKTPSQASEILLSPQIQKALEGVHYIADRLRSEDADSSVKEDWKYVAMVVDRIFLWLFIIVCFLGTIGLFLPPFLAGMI
Chain of Neuronal acetylcholine receptor; alpha2/beta4 (P12392 whole entry): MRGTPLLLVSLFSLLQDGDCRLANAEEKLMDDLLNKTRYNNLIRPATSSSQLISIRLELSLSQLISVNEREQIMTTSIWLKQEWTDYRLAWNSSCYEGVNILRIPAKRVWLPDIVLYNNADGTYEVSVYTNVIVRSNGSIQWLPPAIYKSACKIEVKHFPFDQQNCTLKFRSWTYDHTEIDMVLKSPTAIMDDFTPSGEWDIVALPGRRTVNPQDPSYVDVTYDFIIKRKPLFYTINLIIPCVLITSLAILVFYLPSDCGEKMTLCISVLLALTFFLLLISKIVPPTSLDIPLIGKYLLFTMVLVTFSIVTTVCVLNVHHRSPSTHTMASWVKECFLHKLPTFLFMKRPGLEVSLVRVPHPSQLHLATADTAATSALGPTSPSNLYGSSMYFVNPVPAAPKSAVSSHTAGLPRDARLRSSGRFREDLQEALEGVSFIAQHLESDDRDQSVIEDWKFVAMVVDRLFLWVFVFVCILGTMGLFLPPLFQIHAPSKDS
Chain of Neuronal acetylcholine receptor subunit alpha-2 (P12389 whole entry, one chain of several): as the sequence (P12389 whole entry) above
T1 sequence (P09483 whole entry): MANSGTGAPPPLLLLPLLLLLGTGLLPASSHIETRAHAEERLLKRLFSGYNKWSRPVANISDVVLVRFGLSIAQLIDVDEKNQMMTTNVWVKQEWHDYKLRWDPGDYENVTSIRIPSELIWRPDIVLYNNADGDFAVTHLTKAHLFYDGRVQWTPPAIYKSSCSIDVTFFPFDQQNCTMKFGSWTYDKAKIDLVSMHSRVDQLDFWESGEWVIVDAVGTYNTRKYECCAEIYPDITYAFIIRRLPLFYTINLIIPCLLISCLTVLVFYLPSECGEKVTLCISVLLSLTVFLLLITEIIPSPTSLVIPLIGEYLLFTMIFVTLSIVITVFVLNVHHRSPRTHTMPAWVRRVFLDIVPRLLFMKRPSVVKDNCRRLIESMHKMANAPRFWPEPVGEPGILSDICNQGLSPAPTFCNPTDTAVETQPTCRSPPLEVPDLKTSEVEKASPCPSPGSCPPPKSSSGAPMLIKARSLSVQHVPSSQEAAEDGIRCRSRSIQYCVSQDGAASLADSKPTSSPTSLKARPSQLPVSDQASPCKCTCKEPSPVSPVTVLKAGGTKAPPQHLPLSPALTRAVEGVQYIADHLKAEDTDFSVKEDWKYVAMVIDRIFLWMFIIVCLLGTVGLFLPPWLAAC
T1 sequence (P12390 whole entry): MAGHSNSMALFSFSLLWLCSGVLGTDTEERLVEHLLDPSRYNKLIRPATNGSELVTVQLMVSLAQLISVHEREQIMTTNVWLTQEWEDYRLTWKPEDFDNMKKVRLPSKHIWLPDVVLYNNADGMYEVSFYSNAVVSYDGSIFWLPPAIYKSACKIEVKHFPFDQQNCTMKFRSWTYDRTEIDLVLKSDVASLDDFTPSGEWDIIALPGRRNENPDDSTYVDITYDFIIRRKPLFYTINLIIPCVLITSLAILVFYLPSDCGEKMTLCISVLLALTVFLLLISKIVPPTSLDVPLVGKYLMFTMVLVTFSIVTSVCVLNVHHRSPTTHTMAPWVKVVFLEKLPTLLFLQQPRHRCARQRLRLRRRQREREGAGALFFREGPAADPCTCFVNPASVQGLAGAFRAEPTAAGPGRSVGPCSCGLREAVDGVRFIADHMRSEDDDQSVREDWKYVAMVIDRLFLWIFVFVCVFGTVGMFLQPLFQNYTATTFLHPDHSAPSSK
Chain of Neuronal acetylcholine receptor; alpha4/beta4 (P09483 whole entry): as the sequence (P09483 whole entry) above
Chain of Neuronal acetylcholine receptor; alpha4/beta4 (P12392 whole entry): as the sequence (P12392 whole entry) above
Chain of Neuronal acetylcholine receptor; alpha3/beta2 (P04757 whole entry): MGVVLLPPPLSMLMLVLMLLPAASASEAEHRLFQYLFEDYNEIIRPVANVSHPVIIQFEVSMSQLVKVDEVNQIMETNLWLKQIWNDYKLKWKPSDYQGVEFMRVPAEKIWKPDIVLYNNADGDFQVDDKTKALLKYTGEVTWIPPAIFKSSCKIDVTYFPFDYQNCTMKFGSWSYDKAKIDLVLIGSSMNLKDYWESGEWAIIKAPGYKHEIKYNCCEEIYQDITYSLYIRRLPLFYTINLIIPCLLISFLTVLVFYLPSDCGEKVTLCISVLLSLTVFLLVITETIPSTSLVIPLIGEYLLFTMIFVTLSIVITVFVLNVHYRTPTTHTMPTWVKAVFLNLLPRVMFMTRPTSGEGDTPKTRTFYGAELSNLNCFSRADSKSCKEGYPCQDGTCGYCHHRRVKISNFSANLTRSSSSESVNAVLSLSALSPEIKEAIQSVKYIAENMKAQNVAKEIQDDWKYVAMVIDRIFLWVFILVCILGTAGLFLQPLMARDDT
Chain of Neuronal acetylcholine receptor; alpha3/beta2 (P12390 whole entry): as the sequence (P12390 whole entry) above
Chain of Neuronal acetylcholine receptor; alpha3/beta4 (P04757 whole entry): as the sequence (P04757 whole entry) above
Chain of Neuronal acetylcholine receptor; alpha3/beta4 (P12392 whole entry): as the sequence (P12392 whole entry) above

Row | Compound | Ratio Ki (Rattus norvegicus) | pKi [1] | pKi [2] | pKi [3] | pKi [4] | Ratio Ki [5] | logD [6] | pKi [7] | pKi [8] | Drug uptake [9] | Drug uptake [10] | Ratio [11] | Drug uptake [12] | pKi [13] | logD ([6]; read-out: logD)
1 | Fc1cc(COc2cc(OC[C@@H]3CCCN3)cnc2Cl)ccn1 | 331 | 8.09 | 9.60 | 7.37 | 8.96 | 2.1 | 1.4 | 10.46 | 9.89 |  |  |  |  |  | 
2 | CN1CCC[C@H]1COc1cnc(Cl)c(OCc2ccc(Cl)nc2)c1 | 5820 | 7.85 | 9.59 | 6.49 | 8.18 | 0.9 |  | 10.51 | 10.26 |  |  |  |  |  | 
3 | CN1CCC[C@H]1COc1cnc(Cl)c(/C=C/c2ccncc2)c1 |  |  |  |  |  | 2.8 |  |  |  |  |  |  |  |  | 
4 | CN1CCC[C@H]1COc1cnc(Cl)c(OCc2ccnc(F)c2)c1 | 1450 | 7.96 | 9.48 | 7.05 | 8.80 | 1 | 1.8 | 10.66 | 10.21 |  |  |  |  |  | 
5 | [11CH3]N1CCC[C@H]1COc1cnc(Cl)c(OCc2ccc(Cl)nc2)c1 |  |  |  |  |  |  |  |  |  | 0.7 | 0.7 | 3.8 | 0.7 |  | 
6 | [11CH3]N1CCC[C@H]1COc1cnc(Cl)c(/C=C/c2ccncc2)c1 |  |  |  |  |  |  |  |  |  |  |  |  |  | 10.55 | 1.6
7 | CN1CCC[C@@H]1COc1cnc(Cl)c(OCc2ccc(Cl)nc2)c1 | 318 | 7.66 | 9.07 | 6.46 | 8.12 | 18 | 2.2 | 8.82 | 8.96 |  |  |  |  |  | 
8 | Fc1ncccc1OC[C@@H]1CCN1 |  | 6.74 | 8.52 | 5.43 |  |  |  | 8.85 |  |  |  |  |  |  | 
9 | [11CH3]N1CCC[C@H]1COc1cnc(Cl)c(-c2ccnc(F)c2)c1 |  |  |  |  |  |  |  |  |  | 0.7 | 0.7 |  | 0.7 |  | 
10 | CN1CCC[C@H]1COc1cnc(Cl)c(-c2ccnc(F)c2)c1 | 9520 | 7.57 | 9.15 | 6.23 | 7.80 | 1 | 1.6 | 10.30 | 10.21 |  |  |  |  |  | 
